Experiments:
[1] = tested on: AMP-activated protein kinase (AMPK); assay: Activity (phospho level) of AMPK in liver tissue by Western blotting; format: in vivo, rats; conditions: activity decreased due to alcohol intake; oral daily for the last week, alone or concurrently; FIG. 8
Procedure: (§1) Sodium dodecyl sulfate-polyacrylamide gel electrophoresis (SDS-PAGE) was carried out using Mighty Small II SE 250 apparatus according to the Laemmli UK method (1970). Lysis fraction of liver tissue was diluted in a sample dilution buffer [63 mM Tris (pH 6.8), 10% glycerol, 2% SDS, 0.0013% bromophenol blue, 5% β-mercaptoethanol] and electrophoresis was performed in an electrode buffer (15 g of Tris, 72 g of glycine and 5 g of SDS in 1 L) using 7.5% and 9% gel. After electrophoresis, proteins were transferred to nitrocellulose paper at 190 mAmps for a duration of 1 hour, using a transfer buffer [25 mM Tris, 192 mM glycine, 20% v/v methanol (pH 8.3)]. Anti-fatty acid synthase, anti-iNOS, anti-phospho AMPK-α anti-phospho ACC, anti-Fox01, anti-Fox03 and anti-CYP2E1 were reacted as primary antibodies. […] Change in the expression of proteins was analyzed by determining the color intensity of blots through densitometry. […]
(§2) The levels of AMPK (AMP-activated protein kinase), a critical enzyme involved in the oxidation of fatty acid, and phosphate form of ACC (acetyl-CoA carboxylase), a substrate of AMPK, in the liver tissue taken in Example 1 were analyzed by Western blotting.

[2] = tested on: inducible nitric oxide synthase (iNOS); assay: Expression of iNOS in liver tissue by Western blotting; format: in vivo, rats; conditions: expression strongly induced by chronic alcohol intake; oral daily for the last week, alone or concurrently; FIG. 7
Source text: iNOS is an enzyme strongly inducing inflammation in liver tissue. The induction of the expression of iNOS is considered as a primary mechanism of alcohol-induced liver damage (Mckim, et al., Gastroenterology 125:1834-1844, 2003; and Venkatraman A, et al., Hepatology 40: 565-573, 2004).

[3] = tested on: fatty acid synthase (FAS); assay: Expression of FAS in liver tissue by Western blotting; format: in vivo, rats; conditions: expression decreased by chronic alcohol intake; oral daily for the last week, alone at high dose or concurrently; FIG. 5
Source text: The decreased expression of FAS was not restored by the administration of metadoxine or garlic oil alone at high dose.

[4] = tested on: acetyl-CoA carboxylase (ACC); conditions: activity decreased due to alcohol intake; oral daily for the last week, alone or concurrently; FIG. 9
Procedure: as §1, §2

**Q.** `Cc1ncc(CO)c(CO)c1O.O=C1CCC(C(=O)O)N1` [metadoxine, pyridoxol 1-2-pyrrolidone-5-carboxylate] was tested. Which “activity of AMPK in liver tissue” value [1] did it give?
**A.** no change

**Q.** And the “expression of iNOS in liver tissue” value [2]?
**A.** decreased

**Q.** And the “expression of fatty acid synthase (FAS) in liver tissue” value [3]?
**A.** not restored

**Q.** And the “activity of ACC in liver tissue” value [4]?
**A.** no change
